Results as given in ChEMBL document CHEMBL4130375, “Design, synthesis and biological evaluation of 4-amidobenzimidazole acridine derivatives as dual PARP and Topo inhibitors for cancer therapy” (Eur J Med Chem, 2017).
Activity calls are given as the source filed them. No cut-off for these calls is given here.

Key:
MCF7 [1] = test: Cell cycle arrest in human MCF7 cells assessed as accumulation at G0/G1 phase at 5 uM after 24 hrs by propidium iodide staining based flow cytometry (reference value: 17.67 +/- 1.25%); format: functional
MCF7 [2] = test: Downregulation of CyclinE protein expression in human MCF7 cells up to 10 uM after 24 hrs by Western blot method; format: functional, cell-based

## Cc1cccc2c(Nc3cccc(-c4nc5c(C(N)=O)cccc5[nH]4)c3)c3ccccc3nc12
MCF7 [1]
  Activity: 43.62%
MCF7 [2]
  Activity: Active
